Experimental findings from patent US8871767B2, “2-arylimidazo[1,2-B]pyridazine, 2-phenylimidazo[1,2-A]pyridine, and 2-phenylimidazo[1,2-A]pyrazine derivatives” (Hengrui (USA) Ltd., priority 2010, dated 2014) are described below.

Experiment [1] relates to Hedgehog pathway activation (GLi-luciferase reporter) in Shh Light II reporter cells. In words: Hedgehog pathway activation on Shh Light II reporter cells measured by luciferase activity. The class given is cell-based. The following applies: Mus musculus, Shh Light II. In short, it runs like this:
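Shh Light II reporter cells carrying a hedgehog-responsive GLi-luciferase reporter were stimulated either with 500 nM SAG, a direct Smoothened agonist, or with conditioned media containing human Sonic Hedgehog (hShh). Test compounds were evaluated for blocking this pathway activation, quantified by luciferase activity. Cell viability was monitored in parallel with the Celltiter-Blue® assay.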

Experiment [2] has as its system Hedgehog pathway activation on 10T1/2/Smo#3 cells (C3H10T1/2 cells transfected with human Smoothened receptor). In words: Hedgehog pathway activation on 10T1/2/Smo#3 cells measured by ALP activity. Format: cell-based. The conditions noted are these: Mus musculus, C3H 10T1/2, 10T1/2/Smo#3 cells. In short, it runs like this:
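C3H10T1/2 cells stably expressing human Smoothened were activated with hShh-conditioned medium (10-20%) or 500 nM SAG, with test compounds present. Pathway block read as inhibited ALP activity (4-methylumbelliferyl phosphate fluorescence); viability checked by CellTiter-Blue. IC50 values reported.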

The mark [3] stands for this setting: hShh activation, read-out: Shh (IC50, inhibition of Hedgehog pathway activation).
Setting [4] is: measured by ALP activity, read-out: ALP (IC50, inhibition of Hedgehog pathway activation).
[5] abbreviates: SAG activation (500 nM SAG), read-out: Shh Light II luciferase activity (SAG activation).
[6] abbreviates: hShh activation, read-out: Shh Light II luciferase activity (hShh activation).
[7] abbreviates: hShh activation, ALP activity, read-out: 10T1/2/Smo#3 ALP activity (hShh Activation).

SMILES strings stand for the structures. Where two headings read alike, the source gives them in different places.

Turning to `Cc1ccc(-c2cn3nc(-c4cccnc4F)ccc3n2)cc1NC(=O)C(C)(C)C` [Example 265, N-(5-(6-(2-fluoropyridin-3-yl)imidazo[1,2-b]pyridazin-2-yl)-2-methylphenyl)pivalamide], the values for the IC50 in experiment [1] (setting [3]) and in experiment [2] (setting [4]) were 83 nM and 82 nM, respectively.
With `CC(C)(C)C(=O)Nc1cc(-c2cn3nc(N4CCC(O)CC4)ccc3n2)ccc1C1CC1` [Example 273, N-(2-cyclopropyl-5-(6-(4-hydroxypiperidin-1-yl)imidazo[1,2-b]pyridazin-2-yl)phenyl)pivalamide], the IC50 is 3000 to 30000 nM in experiment [1] (setting [5]), 3000 to 30000 nM in experiment [1] (setting [6]), 300 to 3000 nM in experiment [2] (setting [7]) and 442 nM in experiment [2] (setting [4]).
With `Cc1ccc(-c2cn3nc(-c4cc(C#N)ccc4F)ccc3n2)cc1NC(=O)C(C)(C)C` [Example 274, N-(5-(6-(5-cyano-2-fluorophenyl)imidazo[1,2-b]pyridazin-2-yl)-2-methylphenyl)pivalamide], the IC50 came out at 144 nM in experiment [1] (setting [3]) and 20 nM in experiment [2] (setting [4]).
Regarding `Cc1ccc(-c2cn3nc(-c4cccnc4C)ccc3n2)cc1NC(=O)C(C)(C)C` [Example 278, N-(2-methyl-5-(6-(2-methylpyridin-3-yl)imidazo[1,2-b]pyridazin-2-yl)phenyl)pivalamide], the IC50 is 162 nM in experiment [1] (setting [3]) and 228 nM in experiment [2] (setting [4]).
For `Cc1ccc(-c2cn3nc(-c4cc(Cl)cnc4F)ccc3n2)cc1NC(=O)C(C)(C)C` [Example 279, N-(5-(6-(5-chloro-2-fluoropyridin-3-yl)imidazo[1,2-b]pyridazin-2-yl)-2-methylphenyl)pivalamide], in that order: 282 nM and 129 nM.
Take `Cc1ccc(-c2cn3nc(-c4ccc(F)nc4F)ccc3n2)cc1NC(=O)C(C)(C)C` [Example 280, N-(5-(6-(2,6-difluoropyridin-3-yl)imidazo[1,2-b]pyridazin-2-yl)-2-methylphenyl)pivalamide]: the values for the IC50 in experiment [1] (setting [3]) and in experiment [2] (setting [4]) were 475 nM and 236 nM, respectively.
In the same order, the values of `Cc1ccc(-c2cn3nc(-c4cc(F)ccc4C(F)(F)F)ccc3n2)cc1NC(=O)C(C)(C)C` [Example 281, N-(5-(6-(5-fluoro-2-(trifluoromethyl)phenyl)imidazo[1,2-b]pyridazin-2-yl)-2-methylphenyl)pivalamide] are 72 nM and 38 nM.
For `CCOc1ccc2nc(-c3ccc(CC)c(NC(=O)C(C)(C)C)c3)cn2n1` [Example 283, N-(5-(6-ethoxyimidazo[1,2-b]pyridazin-2-yl)-2-ethylphenyl)pivalamide], the IC50 was 3000 to 30000 nM in experiment [1] (setting [5]); 2230 nM in experiment [1] (setting [3]); 300 to 3000 nM in experiment [1] (setting [6]); 300 to 3000 nM in experiment [2] (setting [7]); 1820 nM in experiment [2] (setting [4]).
In the case of `Cc1ccc(-c2cn3nc(-c4cccnc4C(F)(F)F)ccc3n2)cc1NC(=O)C(C)(C)C` [Example 284, N-(2-methyl-5-(6-(2-(trifluoromethyl)pyridin-3-yl)imidazo[1,2-b]pyridazin-2-yl)phenyl)pivalamide], the IC50 in experiment [1] (setting [5]) is < 300 nM; in experiment [1] (setting [3]), 57 nM; in experiment [1] (setting [6]) it was < 300 nM; in experiment [2] (setting [7]) it was < 300 nM; in experiment [2] (setting [4]), 29 nM.
For the compound `Cc1ccc(-c2cn3nc(N4CCS(=O)(=O)CC4)ccc3n2)cc1NC(=O)C(C)(C)C` [Example 285, N-{5-[6-(1,1-dioxidothiomorpholin-4-yl)imidazo[1,2-b]pyridazin-2-yl]-2-methylphenyl}-2,2-dimethylpropanamide], the IC50 in experiment [1] (setting [3]) turned out to be 788 nM; in experiment [2] (setting [4]) it was 1010 nM.
In the same order, the values of `Cc1ccc(-c2cn3nc(N4CCC(O)CC4)ccc3n2)cc1NC(=O)C(C)(C)C` [Example 286, N-(5-(6-(4-hydroxypiperidin-1-yl)imidazo[1,2-b]pyridazin-2-yl)-2-methylphenyl)pivalamide] are 193 nM and 127 nM.
For `CC(C)(C)C(=O)Nc1cc(-c2cn3nc(N4CCS(=O)(=O)CC4)ccc3n2)ccc1C(F)(F)F` [Example 287, N-{5-[6-(1,1-dioxidothiomorpholin-4-yl)imidazo[1,2-b]pyridazin-2-yl]-2-(trifluoromethyl)phenyl}-2,2-dimethylpropanamide], in that order: 491 nM and 462 nM.
For the compound `CC(C)(C)C(=O)Nc1cc(-c2cn3nc(N4CCCCC4)ccc3n2)ccc1C(F)(F)F` [Example 288, N-(5-(6-(piperidin-1-yl)imidazo[1,2-b]pyridazin-2-yl)-2-(trifluoromethyl)phenyl)pivalamide], the IC50 in experiment [1] (setting [3]) came out at 345 nM; in experiment [2] (setting [4]) it was 258 nM.
In the case of `CC(=O)Nc1ccccc1-c1ccc2nc(-c3ccc(C)c(NC(=O)C(C)(C)C)c3)cn2n1` [Example 289, N-(5-(6-(2-acetamidophenyl)imidazo[1,2-b]pyridazin-2-yl)-2-methylphenyl)pivalamide], the IC50 in experiment [1] (setting [3]) worked out at 284 nM; in experiment [2] (setting [4]), 90 nM.
For `Cc1ccc(-c2cn3nc(-c4cccc(N(C)C)c4)ccc3n2)cc1NC(=O)C(C)(C)C` [Example 290, N-(5-(6-(3-(dimethylamino)phenyl)imidazo[1,2-b]pyridazin-2-yl)-2-methylphenyl)pivalamide], in that order: 321 nM and 296 nM.
In the same order, the values of `CC(C)(C)C(=O)Nc1cc(-c2cn3nc(-c4cc(F)ccc4C(F)(F)F)ccc3n2)ccc1C(F)(F)F` [Example 291, N-(5-(6-(5-fluoro-2-(trifluoromethyl)phenyl)imidazo[1,2-b]pyridazin-2-yl)-2-(trifluoromethyl)phenyl)pivalamide] are 289 nM and 325 nM.
In the same order, the values of `CC(C)(C)C(=O)Nc1cc(-c2cn3nc(-c4cccnc4C(F)(F)F)ccc3n2)ccc1C(F)(F)F` [Example 292, N-(2-(trifluoromethyl)-5-(6-(2-(trifluoromethyl)pyridin-3-yl)imidazo[1,2-b]pyridazin-2-yl)phenyl)pivalamide] are 47 nM and 19 nM.
Consider `Cc1ncccc1-c1ccc2nc(-c3ccc(C(F)(F)F)c(NC(=O)C(C)(C)C)c3)cn2n1` [Example 293, N-(5-(6-(2-methylpyridin-3-yl)imidazo[1,2-b]pyridazin-2-yl)-2-(trifluoromethyl)phenyl)pivalamide], for which the IC50 in experiment [1] (setting [3]) came out at 310 nM; in experiment [2] (setting [4]), 221 nM.
For `CC1CCCCN1c1ccc2nc(-c3ccc(C(F)(F)F)c(NC(=O)C(C)(C)C)c3)cn2n1` (stereo not drawn) [Example 294, N-(5-(6-(2-methylpiperidin-1-yl)imidazo[1,2-b]pyridazin-2-yl)-2-(trifluoromethyl)phenyl)pivalamide], in that order: 256 nM and 254 nM.
As to `CCc1ccc(-c2cn3nc(-c4ccccc4F)ccc3n2)cc1NC(=O)C(C)(C)C` [Example 295, N-(2-ethyl-5-(6-(2-fluorophenyl)imidazo[1,2-b]pyridazin-2-yl)phenyl)pivalamide], the IC50 is 300 to 3000 nM in experiment [1] (setting [5]); 320 nM in experiment [1] (setting [3]); < 300 nM in experiment [1] (setting [6]); < 300 nM in experiment [2] (setting [7]); 326 nM in experiment [2] (setting [4]).
As to `CCc1ccc(-c2cn3nc(-c4ccccc4C#N)ccc3n2)cc1NC(=O)C(C)(C)C` [Example 296, N-(5-(6-(2-cyanophenyl)imidazo[1,2-b]pyridazin-2-yl)-2-ethylphenyl)pivalamide], the IC50 is 311 nM in experiment [1] (setting [3]) and 226 nM in experiment [2] (setting [4]).
For `CC(C)(C)OC(=O)NC1CCN(c2ccc3nc(-c4ccc(C(F)(F)F)c(NC(=O)C(C)(C)C)c4)cn3n2)C1` (stereo not drawn) [Example 297, tert-butyl 1-(2-(3-pivalamido-4-(trifluoromethyl)phenyl)imidazo[1,2-b]pyridazin-6-yl)pyrrolidin-3-ylcarbamate], the IC50 came to 452 nM in experiment [1] (setting [3]) and 463 nM in experiment [2] (setting [4]).
For `CN(CCO)c1ccc2nc(-c3ccc(C(F)(F)F)c(NC(=O)C(C)(C)C)c3)cn2n1` [Example 298, N-(5-(6-((2-hydroxyethyl)(methyl)amino)imidazo[1,2-b]pyridazin-2-yl)-2-(trifluoromethyl)phenyl)pivalamide], in that order: 403 nM and 612 nM.
For `COCCN(C)c1ccc2nc(-c3ccc(C(F)(F)F)c(NC(=O)C(C)(C)C)c3)cn2n1` [Example 299, N-(5-(6-((2-methoxyethyl)(methyl)amino)imidazo[1,2-b]pyridazin-2-yl)-2-(trifluoromethyl)phenyl)pivalamide], the IC50 in experiment [1] (setting [3]) was 338 nM; in experiment [2] (setting [4]), 478 nM.
Turning to `CSCCNc1ccc2nc(-c3ccc(C(F)(F)F)c(NC(=O)C(C)(C)C)c3)cn2n1` [Example 300, N-(5-(6-(2-(methylthio)ethylamino)imidazo[1,2-b]pyridazin-2-yl)-2-(trifluoromethyl)phenyl)pivalamide], the IC50 is < 300 nM in experiment [1] (setting [5]); 535 nM in experiment [1] (setting [3]); 300 to 3000 nM in experiment [1] (setting [6]); 300 to 3000 nM in experiment [2] (setting [7]); 703 nM in experiment [2] (setting [4]).
For `CC(C)(C)C(=O)Nc1cc(-c2cn3nc(NC4CCCC4)ccc3n2)ccc1C(F)(F)F` [Example 301, N-(5-(6-(cyclopentylamino)imidazo[1,2-b]pyridazin-2-yl)-2-(trifluoromethyl)phenyl)pivalamide], the IC50 in experiment [1] (setting [3]) amounted to 406 nM; in experiment [2] (setting [4]), 1060 nM.
